Data reported in patent publication US20250215029A1 (Recludix Pharma, Inc., priority 2022, published 2025).
Read-outs that look alike come from different tables or passages of the source.

What was measured:
[1] = target: T1, pY705-STAT3 in PBMC (Homo sapiens, UniProt P40763); test: MSD-pSTAT-PBMC Assay (pSTAT3, IL-6 stimulated); format: cell-based; conditions: compound 3 hrs, then 10 ng/mL IL-6 for 10 min
T1 construct: Cryopreserved Peripheral Blood Mononuclear Cells (PBMC) are from AllCells; host or cells: cryopreserved PBMC
T1 sequence (P40763 whole entry): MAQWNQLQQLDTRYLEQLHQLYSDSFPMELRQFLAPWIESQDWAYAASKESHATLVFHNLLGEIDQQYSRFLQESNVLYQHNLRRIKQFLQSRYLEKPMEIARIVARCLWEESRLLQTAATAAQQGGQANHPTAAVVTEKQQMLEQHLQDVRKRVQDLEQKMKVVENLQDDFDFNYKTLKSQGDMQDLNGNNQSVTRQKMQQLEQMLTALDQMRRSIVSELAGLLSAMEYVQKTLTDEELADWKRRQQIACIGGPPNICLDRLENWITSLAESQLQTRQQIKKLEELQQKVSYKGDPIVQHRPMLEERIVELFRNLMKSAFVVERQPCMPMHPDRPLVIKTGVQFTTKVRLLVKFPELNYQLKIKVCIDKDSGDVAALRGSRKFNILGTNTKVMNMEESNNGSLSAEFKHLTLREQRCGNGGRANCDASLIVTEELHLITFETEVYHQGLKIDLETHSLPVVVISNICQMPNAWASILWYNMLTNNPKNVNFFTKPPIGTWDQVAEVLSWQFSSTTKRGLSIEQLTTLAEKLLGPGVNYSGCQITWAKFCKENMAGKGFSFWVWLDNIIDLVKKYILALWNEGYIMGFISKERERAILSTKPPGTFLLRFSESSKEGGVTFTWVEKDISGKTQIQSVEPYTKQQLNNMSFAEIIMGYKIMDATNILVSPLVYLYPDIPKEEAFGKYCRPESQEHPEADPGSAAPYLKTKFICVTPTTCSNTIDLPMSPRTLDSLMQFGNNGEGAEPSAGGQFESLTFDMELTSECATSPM
Summary of the method: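 Human PBMCs were pretreated with compound for 3 h, then stimulated with 10 ng/mL IL-6 for 10 min. Lysate pY705-STAT3 was measured by MSD sandwich immunoassay (anti-STAT3 capture) and corrected for unstimulated background. Signal was normalized to DMSO, and IC50 came from variable-slope regression.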

[2] = target: T2, pY641-STAT6 in PBMC (Homo sapiens, UniProt P42226); test: MSD-pSTAT-PBMC Assay (pSTAT6, IL-4 stimulated); format: cell-based; conditions: compound 3 hrs, then 1 ng/mL IL-4 for 10 min
T2 construct: Cryopreserved Peripheral Blood Mononuclear Cells (PBMC) are from AllCells; host or cells: cryopreserved PBMC
T2 sequence (P42226 1-847): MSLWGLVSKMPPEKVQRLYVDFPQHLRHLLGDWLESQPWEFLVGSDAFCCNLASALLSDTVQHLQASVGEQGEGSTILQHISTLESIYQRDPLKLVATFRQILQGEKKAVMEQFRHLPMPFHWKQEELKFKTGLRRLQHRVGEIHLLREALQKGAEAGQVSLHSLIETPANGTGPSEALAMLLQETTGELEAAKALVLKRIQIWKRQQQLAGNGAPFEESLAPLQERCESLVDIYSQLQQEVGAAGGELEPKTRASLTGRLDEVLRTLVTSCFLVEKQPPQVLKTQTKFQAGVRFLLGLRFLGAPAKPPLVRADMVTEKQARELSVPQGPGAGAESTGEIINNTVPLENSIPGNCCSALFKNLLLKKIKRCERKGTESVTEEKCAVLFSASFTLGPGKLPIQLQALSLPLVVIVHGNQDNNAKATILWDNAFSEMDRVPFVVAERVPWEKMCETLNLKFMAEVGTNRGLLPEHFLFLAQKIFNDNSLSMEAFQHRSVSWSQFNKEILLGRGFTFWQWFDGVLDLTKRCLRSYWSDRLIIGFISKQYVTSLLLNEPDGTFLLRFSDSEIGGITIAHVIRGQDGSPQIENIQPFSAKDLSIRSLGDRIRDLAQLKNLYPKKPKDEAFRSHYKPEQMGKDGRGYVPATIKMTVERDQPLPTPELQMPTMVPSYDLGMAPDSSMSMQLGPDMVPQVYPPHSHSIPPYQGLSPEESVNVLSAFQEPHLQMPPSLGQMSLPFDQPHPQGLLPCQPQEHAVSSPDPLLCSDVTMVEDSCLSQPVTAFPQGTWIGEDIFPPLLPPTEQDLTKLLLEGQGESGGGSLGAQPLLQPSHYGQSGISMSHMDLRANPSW
Summary of the method: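 Cells are preincubated with compound for 3 hrs, then stimulated for 10 min, IL-4 at 1 ng/mL driving STAT6 phosphorylation and IL-6 at 10 ng/mL driving STAT3. Phospho-STAT in lysates is quantified by MSD immunoassay, and IC50 is fitted after subtracting unstimulated wells.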

[3] = PBMC, Table 1114, read-out: pSTAT3
[4] = PBMC, Table 1114, read-out: pSTAT6
[5] = PBMC, Table 115, read-out: STAT3
[6] = PBMC, Table 115, read-out: STAT6

IC50 [1, 3] [µM]	SMILES	IC50 [1, 5] [µM]	IC50 ([2]; STAT6, PBMC, Table 115) [µM]	also measured
0.1 to 1	CC(C)C(=O)SCCOP(=O)(OCCSC(=O)C(C)C)C(F)(F)c1ccc2sc(C(=O)N[C@H]3CCCCC4CC[C@@H](C(=O)N5C[C@H](c6ccccc6)[C@@H](C#N)C5)N4C3=O)cc2c1 (single isomer, unassigned) [Compound 156, S,S′-(((((2-(((3S,6S,10aS)-3-((3S,4R or 3R,4S)-3-cyano-4-phenylpyrrolidine-1-carbonyl)-5-oxodecahydro-pyrrolo[1,2-a]azocin-6-yl)carbamoyl)benzo[b]thiophen-5-yl)difluoromethyl)phosphoryl)bis(oxy))bis(ethane-2,1-diyl)) bis(2-methylpropane-thioate)]			IC50 [2, 4]: < 0.1 µM
	CC(C)CC(=O)SCCOP(=O)(OCOC(=O)O[C@@H]1CCOC1)C(F)(F)c1ccc2sc(C(=O)N[C@H]3CCCC[C@H]4CC[C@@H](C(=O)N5C[C@H](c6cc[nH]c(=O)c6)[C@@H](C#N)C5)N4C3=O)cc2c1 (single isomer, unassigned) [Compound 1094]	1 to 3		IC50 [2, 6]: 0.1 to 1 µM
	CC(C)CC(=O)SCCOP(=O)(OCCSC(=O)CC(C)C)C(F)(F)c1ccc2ccc(C(=O)N[C@H]3CCCC[C@H]4CC[C@@H](C(=O)N5CC(c6cc[nH]c(=O)c6)CC56CC6)N4C3=O)cc2c1 (stereo partly drawn) [Compound 1092, S,S′-((((difluoro(7-(((3S,6S,10aS)-5-oxo-3-(6-(2-oxo-1,2-dihydropyridin-4-yl)-4-azaspiro[2.4]heptane-4-carbonyl)decahydropyrrolo[1,2-a]azocin-6-yl)carbamoyl)naphthalen-2-yl)methyl)phosphoryl)bis(oxy))bis(ethane-2,1-diyl)) bis(3-methylbutanethioate)]	0.1 to 1		IC50 [2, 6]: < 0.1 µM
	CCCOC(=O)[C@H](C)NP(=O)(Cc1ccc2ccc(C(=O)N[C@H]3CCCC[C@H]4CC[C@@H](C(=O)N5C[C@@H](c6cc[nH]c(=O)c6)CC56CC6)N4C3=O)cc2c1)Oc1ccccc1 (stereo partly drawn) [Compound 409, propyl (((7-(((3S,6S,10aS)-5-oxo-3-((R)-6-(2-oxo-1,2-dihydropyridin-4-yl)-4-azaspiro[2.4]heptane-4-carbonyl)decahydropyrrolo[1,2-a]azocin-6-yl)carbamoyl)naphthalen-2-yl)methyl)(phenoxy)phosphoryl)-L-alaninate]	> 3	1 to 3	
	CCCOC(=O)[C@H](C)NP(=O)(Oc1ccccc1)[C@@H](F)c1ccc2sc(C(=O)N[C@H]3CCCC[C@H]4CC[C@@H](C(=O)N5C[C@H](c6cccc(F)c6)C(C#N)C56CC6)N4C3=O)cc2c1 (relative stereo) [Compound 337, propyl (((R)-(2-(((3S,6S,10aS)-3-((rel-trans)-7-cyano-6-(3-fluorophenyl)-4-azaspiro[2.4]heptane-4-carbonyl)-5-oxodecahydropyrrolo [1,2-a]azocin-6-yl)carbamoyl)benzo [b]thiophen-5-yl)fluoromethyl) (phenoxy)phosphoryl)-L-alaninate]	> 3	< 0.1	
	CCCC(=O)SCCOP(=O)(Oc1ccccc1)C(F)(F)c1ccc2sc(C(=O)N[C@H]3CCC[C@H]4CC[C@@H](C(=O)N5CC(c6cccnc6)C5)N4C3=O)cc2c1 (stereo partly drawn) [Compound 136, S-(2-(((difluoro(2-(((3S,6S,9aS)-5-oxo-3-(3-(pyridin-3-yl)azetidine-1-carbonyl)octahydro-1H-pyrrolo[1,2-a]azepin-6-yl)carbamoyl)benzo[b]thiophen-5-yl)methyl) (phenoxy)phosphoryl)oxy)ethyl) butanethioate]			IC50 ([1]; pSTAT3, PBMC, Table 1114): < 0.1 µM; IC50 ([2]; pSTAT6, PBMC, Table 1114): 1 to 3 µM
	CCCOC(=O)[C@H](C)NP(=O)(Oc1ccccc1)C(F)c1ccc2sc(C(=O)N[C@H]3C[C@@H](C)C[C@H]4CC[C@@H](C(=O)N5CC(c6cnccc6F)C5)N4C3=O)cc2c1 (stereo partly drawn) [Compound 292, propyl ((fluoro(2-(((3S,6S,8R,9aR)-3-(3-(4-fluoropyridin-3-yl)azetidine-1-carbonyl)-8-methyl-5-oxooctahydro-1H-pyrrolo[1,2-a]azepin-6-yl)carbamoyl)benzo [b]thiophen-5-yl)methyl)(phenoxy)phosphoryl)-L-alaninate]	< 0.1	> 3	
	CC(C)(C)C(=O)SCCOP(=O)(OCCSC(=O)C(C)(C)C)C(F)(F)c1ccc2sc(C(=O)N[C@H]3CCC[C@H]4CC[C@@H](C(=O)N5CC(c6ncccn6)C5)N4C3=O)cc2c1 [Compound 962, S,S′-((((difluoro(2-(((3S,6S,9aS)-5-oxo-3-(3-(pyrimidin-2-yl)azetidine-1-carbonyl)octahydro-1H-pyrrolo[1,2-a]azepin-6-yl)carbamoyl)benzo [b]thiophen-5-yl)methyl)phosphoryl)bis(oxy))bis(ethane-2,1-diyl))bis(2,2-dimethyl-propanethioate)]	< 0.1		IC50 [2, 6]: > 3 µM
< 0.1	CC(C)CC(=O)SCCOP(=O)(OCCSC(=O)CC(C)C)C(F)(F)c1ccc2ccc(C(=O)N[C@H]3CCCC[C@H]4CC[C@@H](C(=O)N5CCC(c6cc[nH]c(=O)c6)C5)N4C3=O)cc2c1 (stereo partly drawn) [Compound 160, S,S′-((((difluoro(7-(((3S,6S,10aS)-5-oxo-3-(3-(2-oxo-1,2-dihydropyridin-4-yl)pyrrolidine-1-carbonyl)decahydropyrrolo [1,2-a]azocin-6-yl)carbamoyl)naphthalen-2-yl)methyl)phosphoryl)bis(oxy))bis(ethane-2,1-diyl)) bis(3-methylbutane thioate)]			IC50 [2, 4]: < 0.1 µM
< 0.1	CC(C)(C)C(=O)OCOP(=O)(OCOC(=O)C(C)(C)C)C(F)(F)c1ccc2ccc(C(=O)N[C@H]3CCCC[C@H]4CC[C@@H](C(=O)N5C[C@@H](C#N)[C@]6(C5)C(=O)Nc5ccccc56)N4C3=O)cc2c1 (single isomer, unassigned) [Compound 193]			IC50 [2, 4]: < 0.1 µM
	CCCOC(=O)[C@H](C)NP(=O)(Cc1ccc2sc(C(=O)N[C@H]3CCCC[C@H]4CC[C@@H](C(=O)NCc5cnc6[nH]cnc6c5)N4C3=O)cc2c1)Oc1ccccc1 (stereo partly drawn) [Compound 280, propyl (((2-(((3S,6S,10aS)-3-(((3H-imidazo[4,5-b]pyridin-6-yl)methyl)carbamoyl)-5-oxodecahydropyrrolo [1,2-a]azocin-6-yl)carbamoyl)benzo [b]thiophen-5-yl)methyl)(phenoxy)phosphoryl)-L-alaninate]	< 0.1	> 3	
	CCCOC(=O)[C@H](C)NP(=O)(Cc1ccc2sc(C(=O)N[C@H]3C[C@@H](C)C[C@H]4CC[C@@H](C(=O)N5CC(c6cnccc6C)C5)N4C3=O)cc2c1)Oc1ccccc1 (stereo partly drawn) [Compound 284, propyl (((2-(((3S,6S,8R,9aR)-8-methyl-3-(3-(4-methylpyridin-3-yl)azetidine-1-carbonyl)-5-oxooctahydro-1H-pyrrolo[1,2-a]azepin-6-yl)carbamoyl)benzo [b]thiophen-5-yl)methyl)(phenoxy)phosphoryl)-L-alaninate]	< 0.1	> 3	

SMILES	IC50 [1, 3] [µM]	IC50 [1, 5] [µM]	IC50 ([2]; STAT6, PBMC, Table 115) [µM]	also measured
CC(C)(C)C(=O)SCCOP(=O)(Oc1ccccc1)C(F)(F)c1ccc2sc(C(=O)N[C@H]3CCCC[C@H]4CC[C@@H](C(=O)N5C[C@H](c6ccccc6)[C@@H](C#N)C5)N4C3=O)cc2c1 (single isomer, unassigned) [Compound 133, S-(2-((((2-(((3S,6S,10aS)-3-((3S,4R or 3R,4S)-3-cyano-4-phenylpyrrolidine-1-carbonyl)-5-oxodecahydro-pyrrolo[1,2-a]azocin-6-yl)carbamoyl)benzo[b]thiophen-5-yl)difluoromethyl) (phenoxy)phosphoryl)oxy)ethyl)-2,2-dimethylpropane-thioate]	> 3			IC50 ([2]; pSTAT6, PBMC, Table 1114): 0.1 to 1 µM
